# Earlier results in patent US8343945B2, “Carriers, formulations, methods for formulating unstable active agents for external application and uses thereof” (Foamix Ltd., priority 2007, dated 2013).
# Read-outs that look alike come from different tables or passages of the source.
# Columns and labels:
# [1] = cited from earlier work
# [2] = powder for IV administration reconstituted with sterile water for injection; cited from earlier work
# [3] = cited from earlier work; remark: listed apart in the source
substance,measurement,setting,value
Doxycycline hyclate,Solubility in alcohol,[1]; alcohol,slightly soluble
same,Solubility in solutions of alkali hydroxides and carbonates,[1]; solutions of alkali hydroxides and carbonates,soluble
same,Solubility in water,[1]; water,soluble
same,pH of solution,[2],1.8-3.3
same,IV solution stable for,"[3]; 0.1-1 mg/mL in 0.9% sodium chloride or 5% dextrose, 25° C.",48 h
same,IV solution stable for,"[3]; 0.1-1 mg/mL in Ringer's, 10% invert sugar, Normosol or Plasma-Lyte in dextrose, room temperature",12 h
same,IV solution must be infused within,[3]; 0.1-1 mg/mL in lactated Ringer's injection or 5% dextrose in lactated Ringer's,≤ 6 h
same,IV solution stable for,"[3]; 2-8° C., protected from direct sunlight and artificial light",72 h
